In patent US20250367229A1, “Treatment of Immune-Related Disorders, Kidney Disorders, Liver Disorders, Hemolytic Disorders, and Oxidative Stress-Associated Disorders Using NRH, NARH and Reduced Derivatives Thereof” (MitoPower LLC, priority 2021, published 2025):

What was measured:
Format in all cases: cell-based, human
CD4^+ T cells [1] = experiment: Ex vivo polyclonal immune activation model: cytokine production in CD4+ T cells; details: stimulated with anti-CD3 and anti-CD28 antibodies; data not shown
Method: (§1) Heparinized venous blood was collected from healthy human adult donors. Peripheral blood mononuclear cells (PBMCs) were isolated by Ficoll-Hypaque density-gradient centrifugation. PBMCs (1.0×10^6) were seeded in round-bottom, 96-well plates in 200 μL of medium, unstimulated or stimulated with an anti-CD3 antibody ([…], clone-HIT3a, Biolegend) plus an anti-CD28 antibody (1 μg/mL, clone-CD28.2, Biolegend) to induce T-cell activation, and incubated in cell-culture medium. The PBMCs were unstimulated or stimulated with anti-CD3 and anti-CD28 antibodies to induce T-cell activation, in the absence or presence of 250 μM NRH. After 18 hours of incubation, lymphocytes were analyzed for intracellular levels of IFN-γ, TNF-α and IL-2 by flow cytometry. Intracellular cytokine production was stopped by treating the cells with Golgi stop after 1 hr of treatment.

[2] = tested on: peripheral blood mononuclear cells (PBMCs); experiment: Extracellular acidification rate (ECAR, a measure of glycolysis) in activated PBMCs, Seahorse XF; details: 250 μM, 4 hr, PBMCs stimulated with anti-CD3 and anti-CD28 antibodies
Method: PBMCs (1.5×10^6) obtained from a healthy human adult donor were unstimulated or stimulated with anti-CD3 and anti-CD28 antibodies (1 μg/mL each) to induce T-cell activation, in the absence or presence of 250 μM NRH for 4 hr. The cells were then washed and plated on poly-D-lysine-coated Seahorse XF microplates at a density of 3×10^5 cells per well (5 replicates). The plates were centrifuged briefly and incubated at 37° C. in a non-CO2 incubator for 30 min to settle the cells in the bottom of the plate. Extracellular acidification rate (ECAR, a measure of glycolysis) and oxygen consumption rate (OCR, a measure of oxidative phosphorylation) were determined using a Seahorse XF cell mito stress test kit and a Seahorse Xfe96 analyzer (Agilent Technologies, Santa Clara, California) under basal condition or in response to 1.0 μM oligomycin (an inhibitor of ATP synthase), 1.5 μM carbonyl cyanide-p-trifluoromethoxyphenylhydrazone (FCCP, a mitochondrial uncoupler), 0.5 μM rotenone (an inhibitor of electron transport at complex I) and antimycin A (an inhibitor of electron transport at cytochrome c reductase). PBMCs include monocytes and lymphocytes including T cells, B cells and natural killer cells.

CD4^+ T cells [3] = experiment: Mitochondrial membrane depolarization (JC-1, flow cytometry) in CD4+ T cells; details: 250 μM, 24 hr, unstimulated or stimulated with anti-CD3 and anti-CD28 antibodies
Method: (§2) PBMCs (10^6 cells per test group) obtained from healthy human adult donors were unstimulated or stimulated with anti-CD3 and anti-CD28 antibodies to induce T-cell activation, in the absence or presence of 250 μM of NRH or NRH-triacetate (NRHTA). Measurements were made at 5, 15 and 24 hr after treatment.
(§3) After the indicated time of incubation, the PBMCs were stained with anti-CD3, anti-CD4 and anti-CD8 antibodies (Biolegend), JC-1 (1 μM, Thermo Fisher) and annexin V (Thermo Fisher) prior to analysis by flow cytometry. Annexin V binds to cell-surface phosphatidylserine, which is a marker for different forms of cell death including apoptosis and necrosis. The stained cells were re-suspended in phosphate-buffered saline (PBS) and acquired in a Cytek Aurora flow cytometer using a FlowJo software (v10) for analysis. About 200,000-300,000 cells were acquired in the flow cytometer for analysis. Standard procedures for spectral compensation were performed to obtain cell populations. Lymphocytes identified by forward and side scatter were gated to obtain CD3^+/CD4^+ and CD3^+/CD8^+ T-cell populations. Those T-cell populations were gated to identify the red and green signals for JC-1 aggregate and monomer, respectively, and annexin V. The percentage of cells staining green by JC-1 monomer was used to determine the percentage of cells with depolarized mitochondria. […]

RBC hemoglobin = experiment: H2O2-induced oxidative changes of RBC hemoglobin in vitro (spectral scans)
Method: A 4 M stock solution of sodium azide was prepared. One mL of the 4 M stock azide solution was diluted with 9 mL of phosphate-buffered saline (PBS, pH 7.4) to obtain a 0.4 M stock solution, which was further diluted with PBS to obtain a 0.01 M working solution of sodium azide. Eight mL of whole blood was collected in buffered acid citrate dextrose tubes from a healthy human donor. PBS was added to 500 μL of whole blood. The samples were centrifuged, and then the supernatant from each tube was discarded to obtain a red blood cell (RBC) pellet. Ten μL of 0.01 M sodium azide working solution was added to 20 μL of RBC suspension. Twenty μL of hydrogen peroxide (H2O2) diluted in PBS was added to the RBC suspension to obtain final concentrations of H2O2 ranging from 0.01 mM to 100 mM. The samples were incubated at 37° C. for 1.5 hr. 950 μL of de-ionized water was added to the samples, which were then incubated for 10 min to lyse the RBCs and obtain hemoglobin upon centrifugation at 1,500 g. Spectral scans of the lysed samples between 200 nm and 1100 nm were obtained in 2 nm increments, using a Systronics® dual-beam UV-spectrophotometer and de-ionized water as a blank. Samples incubated with PBS at 37° C. for 1-1.5 hr were used as controls to establish the oxidative effects of H2O2 on RBC hemoglobin. Absorbance at 576 nm is a measure of hemoglobin concentration in a sample, and oxidation of hemoglobin to methemoglobin results in a drop in absorbance at 576 nm and an increase in absorbance at 630 nm. Fantao et al., Anal. Biochem., 521:11-19, (2017). Stock solutions of NRH (29.6 mM) and NR (18.3 mM) were prepared in 0.9% normal saline. Appropriate quantities of the stock NRH or NR solution and PBS were added to 500 μL of whole blood to obtain final concentrations of NRH or NR ranging from 1 μM to 1000 μM. The whole blood samples with NRH or NR were mixed gently and incubated at 37° C. for 1-1.5 hr. The samples were centrifuged, and then the supernatant was discarded to obtain an RBC pellet for each sample.

CD8^+ T cells [4] = experiment: Mitochondrial membrane depolarization (JC-1, flow cytometry) in CD8+ T cells; details: 250 μM, 24 hr, unstimulated or stimulated with anti-CD3 and anti-CD28 antibodies
Method: as §2, §3

CD8^+ T cells [5] = experiment: Ex vivo polyclonal immune activation model: intracellular cytokine production in CD8+ T cells (flow cytometry); details: 250 μM, 18 hours, PBMCs stimulated with anti-CD3 and anti-CD28 antibodies; p<0.05 Mann-Whitney U test
Method: as §1

Structure (SMILES): NC(=O)C1=CN([C@@H]2O[C@H](CO)[C@@H](O)[C@H]2O)C=CC1 [NRH, N-(β-D-ribofuranosyl)dihydronicotinamide]
- production of pro-inflammatory cytokines (e.g., TNF-α, IL-2, IFN-γ) by CD4+ T cells (CD4^+ T cells [1]): reduced production of pro-inflammatory cytokines
- extracellular acidification rate (ECAR, a measure of glycolysis) in activated PBMCs [2]: significantly reduced
- mitochondrial membrane depolarization in CD4+ T cells (CD4^+ T cells [3]): significantly induced
- A576/A630 ratio (a measure of the hemoglobin/methemoglobin ratio) (RBC hemoglobin; RBCs exposed to 1 mM H2O2, 1 μM or 100 μM NRH, NR data not shown): restored
- protection of hemoglobin from 1 mM H2O2-induced oxidative changes (amplitude of absorbance peaks at 576, 540, 434, 348 and 270 nm) (RBC hemoglobin; pre-incubation of RBCs with 1, 10 and 100 µM): protected hemoglobin
- mitochondrial membrane depolarization in CD8+ T cells (CD8^+ T cells [4]): significantly induced
- production of IFN-γ in activated CD8+ T cells (CD8^+ T cells [5]): significantly reduced
- production of IL-2 in activated CD8+ T cells (CD8^+ T cells [5]): significantly reduced
- production of TNF-α in activated CD8+ T cells (CD8^+ T cells [5]): significantly reduced
